Assay type in all cases: cell-based, human
The subject of assay [1] is GSK3β. Kind of assay: Western blot of phospho-GSK3β (Ser 9). Conditions: LNCaP and PC-3-GFP cells, 40 μM α-TEA. From the text:
(§1) Previous studies have shown that α-TEA is an effective inducer of apoptosis in human prostate cancer cells (Anderson et al., 2004). Dose- and time-dependent pro-apoptotic effects of α-TEA in prostate cancer cells are mediated by Fas/FADD/caspase-8/tBid and Fas/Daxx/Ask1/JNK1/2/Bax, leading to activation of caspases-9 and -3. Thus, the Akt inhibiting activity of α-TEA was investigated in prostate cancer cells. Since phosphorylation of Akt at Ser 473 is required for its full activation (Cheng et al., 2005), we examined the phosphorylation status of Akt using an antibody that specifically recognizes Akt phosphorylated at Ser 473 in all three Akt isoforms (Upstate Cell Signaling Solutions (Charlottesville, Va.)). α-TEA decreased the levels of the phosphorylated forms of Akt. […] As verification that the decreases in phosphorylation status of Akt correlated with decreased kinase activity, the phosphorylation status of GSK3β, a downstream Akt target, was evaluated following α-TEA treatments. […] GAPDH levels were assayed with each immunoblot assay as a protein loading control.
Akt antibodies for the foregoing studies (Akt, Akt1, Akt2, Akt and phospho-Akt) as well as GSK3β and phospho-GSK3β antibodies were purchased from Cell Signaling Technology (Beverly, Mass.).
On the technique in general: In western blotting, separated proteins are transferred to a membrane and probed.

Assay [2] concerns NOXA. Kind of assay: NOXA mRNA (RT-PCR) and protein (Western blot) levels. Particulars: for peak NOXA mRNA levels, fold higher than VEH control / NOXA protein levels, fold higher than VEH control: 40 μM α-TEA; for NOXA protein levels, fold higher than VEH control: 24 h. The method, then: Whole-cell protein extracts were prepared as described previously (Yu et al., 1999), and 50 μg of protein was loaded per lane, separated using SDS-PAGE on a 10-15% gel under reducing conditions, and electroblotted onto a nitrocellulose membrane ([…] Optitran BA-S-supported nitrocellulose; Schleicher and Schuell, Keene, N.H.). Equal loading was verified using GAPDH antibody. Primary rabbit antibodies with specificity for PARP and primary goat antibody with specificity for Arg were purchased from Santa Cruz Biotechnology (Santa Cruz, Calif.). Horseradish peroxidase conjugated goat anti-rabbit or horseradish goat anti-mouse secondary antibody was purchased from Jackson Immunoresearch Laboratory (West Grove, Pa.). Horseradish peroxidase-conjugated donkey anti-goat serum was purchased from Santa Cruz Biotechnology. Immune complexes were visualized using enhanced chemiluminescence detection (Pierce Chemical Co., Rockford, Ill.). Fold differences in level of chemiluminescence were determined by densitometric analyses.
Total RNA was isolated from cells using RNeasy Protect Mini kit (Qiagen, Valencia, Calif.) according to manufacturer's instruction. Reverse transcription was performed as described above except using 15 μg of total RNA as template. Polymerase chain reaction (PCR) with Arg primers 30 cycles in volumes of 50 μl according to the manufacturer's protocol (Taq PCR Master Mix Kit; Qiagen, Valencia, Calif.). Primers used in the analyses were: Arg, forward (5′-CAGTGATGCCTCCACCTCAA-3′; SEQ ID NO:2) and reverse (5′-TTTCCCTCTCCCCTCAGAAAT-3′; SEQ ID NO:3) and for β-actin (loading control), forward (5′-GGCGGCACCACCATGTACCCT-3′; SEQ ID NO:4) and reverse (5′-AGGGGCCGGACTCGTCATACT-3′; SEQ ID NO:5) (Invitrogen, Carlsbad, Calif.). The amplification reaction involved denaturation at 95° C. for 30 seconds, annealing at 52° C. for 30 seconds, and extension at 72° C. for 30 seconds (for Arg) using a PTC-225 thermal cycler (MJ Research, San Francisco, Calif.). The PCR products were resolved on 1% agarose gels and visualized by ethidium bromide staining.
To confirm the microarray data, semi-quantative RT-PCR and Western blot analyses were carried out to measure the change in mRNA and protein level of NOXA using estrogen nonresponsive MDA-MB-435 and estrogen responsive MCF-7 human breast cancer cells. Assays were preformed as describide above using NOXA specific antibodies (purchased from Santa Cruz Biotechnology (Santa Cruz, Calif.)) and NOXA sepcific PCR primers (forward (5′-CGTGTGTAGTTGGCATCTCC-3′) and reverse (5′-GCCCCAAGTAACCCTCCTAT-3′)). In MCF-7 cells, α-TEA induced NOXA mRNA starting at 3 h, peaking at 15 h (FIG. 9A, left top panel). In MDA-MB-435 cells, α-TEA induced NOXA mRNA starting at 3 h, peaking at 6 h (FIG. 9A, right top panel). In both cell lines, protein levels of NOXA were increased at 15 and 24 h after α-TEA treatments (FIG. 9C, top panel). […] In MCF-7 cells, peak NOXA mRNA levels at 15 h were 1.5-fold higher than the VEH control and NOXA protein levels at 24 h were 7.6-fold higher than the VEH control. Upregulation of NOXA protein levels is correlated with PARP cleavage which is an indicator of cells undergoing apoptosis (Wolf and Green, 1999) (FIG. 9C, second panel). GAPDH levels served to help verify lane loads (FIG. 9C, bottom panel). […] NOXA protein levels were also assessed in other cell lines including MDA-MB-231 and T47D human breast cancer cell lines, immortalized, but nontumorigenic MCF-10A breast epithelial cells as well as human normal mammary epithelial cell line (HMEC) (Table 3). The ability of α-TEA to induce NOXA and induce apoptosis plus the p53 status based on the literature is summarized (Table 3).

Assay [3] deals with Akt. Kind of assay: Western blot of phosphorylated Akt (Ser 473) and total Akt in prostate cancer cells.
Text: as §1
Since Akt has three isoforms; namely, Akt1, Akt2, and Akt3, it was of interest to determine if α-TEA treatment was reducing the phosphorylated status of all three isoforms. Following α-TEA treatment the three Akt isoforms were immunoprecipitated with isoform specific antibodies, followed by western immunoblotting analyses using antibody specific for phospho-Akt. The protein levels of the isoforms were also determined. […] Treatment diminished the phosphorylation levels in all three Akt isoforms in both LNCaP and PC-3-GFP cells.
1×10^7 LNCaP or PC-3 3-GFP cells were treated with α-TEA and lysed in RIPA lysis buffer in the presence of protease inhibitors. […] Beads were washed 4 times with PBS and the proteins were released from the beads by boiling in Laemmli buffer for 5 min. Immunoprecipitated proteins were identified by SDS-PAGE followed by western immunoblot analyses.
Since Akt is activated, at least in part, by PI3K, we were interested to see if blockage of PI3K activity using the PI3K inhibitor LY294002 (Calbiochem-Novabiochem Corp. (San Diego, Calif.)) (Vlahos et al., 1994) would augment the apoptotic response induced by α-TEA.

Consider `Cc1c(C)c2c(c(C)c1OCC(=O)O)CC[C@@](C)(CCC[C@H](C)CCC[C@H](C)CCCC(C)C)O2` [α-TEA], for which the “phosphorylation status of pGSK3β (at Ser 9)” value in assay [1] was “Decreases”. Besides, the “Ability of α-TEA to induce NOXA expression” value in assay [2] (HMEC) is given as “No”; in assay [2] (MCF-7), “Yes”; in assay [2] (MCF-10A) it was “Yes”; in assay [2] (MDA-MB-231) it was “Yes”; in assay [2] (MDA-MB-435), “Yes”; in assay [2] (T47D), “No”. For the same compound, the “peak NOXA mRNA levels, fold higher than VEH control” value in assay [2] (MCF-7 cells, 15 h) turned out to be 1.5 fold; in assay [2] (MDA-MB-435 cells, 6 h), 2.6 fold. Further, the “NOXA protein levels, fold higher than VEH control” value in assay [2] (MCF-7 cells) is 7.6 fold; in assay [2] (MDA-MB-435 cells), 16.8 fold. The “phosphorylation levels of Akt1, Akt2, Akt3 isoforms (immunoprecipitation)” value in assay [3] (LNCaP and PC-3-GFP cells, 40 μM α-TEA, 24 h) is listed as “markedly reduced”. In assay [3] (LNCaP and PC-3-GFP cells, any time point), the “effect on level of Akt protein expression” value is given as “no major effect”. Besides, the “inhibition of levels of endogenously phosphorylated Akt” value is 40% in assay [3] (LNCaP cells, 10 μM α-TEA and/or 10 μM LY294002) and 70% in assay [3] (PC-3-GFP cells, 20 μM α-TEA and/or 10 μM LY294002). The “reduction of phosphorylated forms of Akt” value came out at 90% in assay [3] (LNCaP cells, 40 μM α-TEA, 24 h) and 70% in assay [3] (PC-3-GFP cells, 40 μM α-TEA, 24 h).

The record behind these values is patent US20100292316A1, “IMPROVED THERAPEUTIC METHODS AND COMPOSITIONS COMPRISING CHROMAN RING COMPOUNDS” (Research Development Foundation, priority 2007, published 2010).
